Results on 45 molecules are retold here after patent publication US6066642A, “Dihydropyridine-, pyridine-, benzopyran-4-one- and triazoloquinazoline derivative, their preparation and their use as adenosine receptor antagonists” (priority 1998, dated 2000).

The target in one assay is T1, A2a receptors (Rattus norvegicus, UniProt P30543).
T1 construct: Displacement of specific [^3 H]; from tissue; host or cells: rat striatal membranes
T1 sequence (P30543 whole entry): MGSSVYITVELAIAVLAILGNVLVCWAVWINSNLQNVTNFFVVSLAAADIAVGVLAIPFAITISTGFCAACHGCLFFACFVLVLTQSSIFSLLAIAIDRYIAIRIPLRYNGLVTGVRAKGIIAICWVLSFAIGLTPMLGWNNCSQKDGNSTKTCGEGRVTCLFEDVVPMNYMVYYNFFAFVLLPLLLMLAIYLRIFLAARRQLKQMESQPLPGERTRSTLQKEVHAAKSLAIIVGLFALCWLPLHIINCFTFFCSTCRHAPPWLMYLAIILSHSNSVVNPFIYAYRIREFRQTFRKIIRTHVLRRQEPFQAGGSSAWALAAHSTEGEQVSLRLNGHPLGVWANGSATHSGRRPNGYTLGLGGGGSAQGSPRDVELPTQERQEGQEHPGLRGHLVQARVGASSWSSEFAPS
In words: radioligand binding, displacement of specific [3H]CGS 21680 binding in rat striatal membranes. Conditions: Table 3; [3H]CGS 21680, rat striatal membranes; read-out: Ki rA2a.
Protocol: ^b Displacement of specific [^3 H]
or as a percentage of specific binding displaced at 100 μM.
Turning to `CCOc1cc(O)c2c(=O)c(OCC)c(-c3ccccc3)oc2c1` [Compound 3b, 3,7-Diethoxy-5-hydroxyflavone], the Ki amounted to 63.8 ± 18.8 µM.

Still in this assay, the particulars now being: Table 6; [3H]CGS 21680, rat striatal membranes; read-out: K2 (rA2a).
For the molecule `O=c1c(O)c(-c2ccc(O)c(O)c2)oc2cc(O)cc(O)c12` [Compound 37, quercetin, reference compound], the Ki was 6.99 ± 0.89 µM.

The assay is the same for the next values; noted with them: Table 9; 10^-4 M; read-out: % of specific binding displaced rA2A.
With `COCCOC(=O)C1=C(C)NC(C)=C(C(=O)OC)C1C` (racemic) [Compound 53, 3-methyl,5-(2-methoxy)ethyl 2,4,6-trimethyl-1,4(R,S)-dihydropyridine-3,5-dicarboxylate], the inhibition at 100 µM amounted to 19%.

Staying with this assay, now noted: Table 9; [3H]CGS 21680, rat striatal membranes; read-out: Ki rA2A.
Take `CCOC(=O)C1=C(C)NC(C)=C(C(=O)OC)C1CC(C)CCC=C(C)C` (racemic) [Compound 58]: the Ki turned out to be 23.1 µM.

Regarding `CCOC(=O)C1=C(C)NC(C)=C(C(=O)OCCCSc2ccccc2)C1C` (stereo not drawn) [Compound 55], the Ki turned out to be 7.1 µM.

Turning to `CCOC(=O)C1=C(C)NC(C)=C(C(=O)OC)C1c1ccc(OC)cc1` (racemic) [Compound 71, 3-methyl-5-ethyl-2,6-dimethyl-4-(4-methoxyphenyl)-1,4(R,S)-dihydropyridine-3,5-dicarboxylate], the Ki stood at 12.7 ± 3.8 µM.

`CCCC1C(C(=O)OC)=C(C)NC(C)=C1C(=O)OCC` (racemic) [Compound 57, 3-methyl,5-ethyl 2,6-dimethyl-4-propyl-1,4(R,S)-dihydropyridine-3,5-dicarboxylate]: the Ki came to 11.5 µM.

For `COC(=O)C1=C(C)NC(C)=C(C(=O)OCc2ccccc2)C1C` (racemic) [Compound 54, 3-methyl,5-benzyl 2,4,6-trimethyl-1,4(R,S)-dihydropyridine-3,5-dicarboxylate], the Ki is 9.72 µM.

`CCOC(=O)C1=C(C)NC(C)=C(C(=O)OC)C1CC` (racemic) [Compound 56, 3-Methyl-5-ethyl-2,6-dimethyl-4-ethyl-1,4(R,S)-dihydropyridine-3,5-dicarboxylate]: the Ki worked out at 9.56 ± 2.69 µM.

For the molecule `CCOC(=O)C1=C(C)NC(C)=C(C(=O)OC)C1c1ccc(O)c(OC)c1` (racemic) [Compound 72, 3-methyl-5-ethyl-2,6-dimethyl-4-(4-hydroxy,3-methoxyphenyl)-1,4(R,S)-dihydropyridine-3,5-dicarboxylate], the Ki was 56.8 ± 1.9 µM.

As to `CCOC(=O)C1=C(C)NC(C)=C(C(=O)OC)C1c1ccccc1C(F)(F)F` (racemic) [Compound 68, 3-methyl-5-ethyl-2,6-dimethyl-4-(2-α,α,α-trifluoromethylphenyl)-1,4(R,S)-dihydropyridine-3,5-dicarboxylate], the Ki is 20.7 µM.

In the case of `CCOC(=O)C1=C(C)NC(C)=C(C(=O)OCC)C1c1cccc([N+](=O)[O-])c1` [Compound 62], the Ki worked out at 18.2 µM.

For `CCCCC1=C(C(=O)OCC)C(C)C(C(=O)OCC)=C(C)N1` (racemic) [Compound 77, 3,5-diethyl-2,4-dimethyl-6-butyl-1,4(R,S)-dihydropyridine-3,5-dicarboxylate], the Ki was 38 ± 10.6 µM.

For `CCOC(=O)C1=C(C)NC(c2ccccc2)=C(C(=O)OCC)C1C` (racemic) [Compound 78, 3,5-diethyl-2,4-dimethyl-6-phenyl-1,4(R,S)-dihydropyridine-3,5-dicarboxylate], the Ki is 35.9 µM.

Staying with this assay, now noted: Table 10; [3H]CGS 21680, rat striatal membranes; read-out: Ki rA2a.
As for `CCOC(=O)c1c(C)nc(-c2ccccc2)c(C(=O)OCC)c1C` [Compound 81], the Ki came to 28.4 µM.

Still in this assay, the particulars now being: Table 11; 10^-4 M; read-out: % inhibition rA2A.
As for `CCOC(=O)C1=C(C)NC(c2ccc(Cl)cc2)=C(C(=O)OCC)C1/C=C/c1ccccc1` (stereo not drawn) [Compound 90], the inhibition at 100 µM was 12 ± 7%.

On to `CCOC(=O)C1=C(C)NC(c2ccoc2)=C(C(=O)OCC)C1/C=C/c1ccccc1` (stereo not drawn) [Compound 92], for which the inhibition at 100 µM stood at 35 ± 6%.

On to `CCOC(=O)C1=C(C)NC(c2ccc(C)cc2)=C(C(=O)OCC)C1/C=C/c1ccccc1` (stereo not drawn) [Compound 88], for which the inhibition at 100 µM turned out to be 37%.

With `CCOC(=O)C1=C(C)NC(c2ccccc2)=C(C(=O)OCC)C1/C=C/c1ccccc1OC` (stereo not drawn) [Compound 94], the inhibition at 100 µM was found to be 17 ± 12%.

Staying with this assay, now noted: Table 11; 10^-4 M; read-out: displacement of specific binding rA2A.
As for `CCOC(=O)C1=C(C)NC(c2ccc(OC)cc2)=C(C(=O)OCC)C1/C=C/c1ccccc1` (stereo not drawn) [Compound 89], the inhibition at 100 µM is below 10%.

With `CCOC(=O)C1=C(C)NC(c2ccccc2)=C(C(=O)OCC)C1/C=C/c1ccccc1[N+](=O)[O-]` (stereo not drawn) [Compound 95], the inhibition at 100 µM was below 10%.

For the molecule `CCOC(=O)C1=C(C)NC(c2ccsc2)=C(C(=O)OCC)C1/C=C/c1ccccc1` (stereo not drawn) [Compound 93], the inhibition at 100 µM is below 10%.

Still in this assay, the particulars now being: Table 11; [3H]CGS 21680, rat striatal membranes; read-out: Ki rA2A.
Take `CCOC(=O)c1c(C)nc(-c2ccccc2)c(C(=O)OCC)c1/C=C/c1ccccc1` [A]: the Ki was found to be 2.6 µM.

For `CCOC(=O)C1=C(C)NC(c2ccccc2)=C(C(=O)OCC)C1CC` (stereo not drawn) [Compound 86], the Ki turned out to be 14.5 µM.

As for `CCOC(=O)C1=C(C)NC(c2ccccc2)=C(C(=O)OCc2ccccc2)C1C` (stereo not drawn) [Compound 87], the Ki came to 3.15 µM.

Take `CCOC(=O)C1=C(C)NC(C)=C(C(=O)OCC)C1/C=C/c1ccccc1` [Compound 84]: the Ki was 9.23 ± 3.6 µM.

The same assay, now with this note: Table 12; 10^-4 M.
“3,5-Diethyl 2,6-dimethyl-4-(2-thienyl)-1,4-(±)-dihydropyridine-3,5-dicarboxylate [Compound 114]”: the “% inhibition rA2A” value was 36%.

Staying with this assay, now noted: Table 12; 10^-4 M; read-out: % inhibition rA2A.
As for `CCNC(=O)C1=C(c2ccccc2)NC(C)=C(C(=O)OCC)C1C#Cc1ccccc1` (racemic) [Compound 132, 3-Ethoxycarbonyl-2-methyl-4-phenylethynyl-6-phenyl-1,4(±)-dihydropyridine-5-carboxylic ethyl amide], the inhibition at 100 µM amounted to 47%.

Consider `CCOC(=O)C1=C(C)NC(c2ccccc2)=C(C(=O)OCC)C1C#Cc1ccccc1` (stereo not drawn) [Compound 109], for which the inhibition at 100 µM is 25 ± 3%.

Take `CCOC(=O)C1=C(c2ccccc2)NC2=C(C(=O)CCC2)C1C#Cc1ccccc1` (racemic) [Compound 136, Ethyl 3-oxo-1,4,5,6,7,8-hexahydroquinoline-2-methyl-4-phenylethynyl-6-phenyl-1,4-±-dihydropyridin-5-carboxylate]: the inhibition at 100 µM was 22 ± 4%.

`CCOC(=O)C1=C(c2ccccc2)NC(C)=C(C(=O)OC[C@H](OC)c2ccccc2)C1C#Cc1ccccc1` (mixture of isomers) [Compound 128, 3-(2-Methoxy-2-phenyl)-ethyl 5-Ethyl 2-methyl-4-phenylethynyl-6-phenyl-1.4-(±)-dihydropyridine-3,5-dicarboxylate]: the inhibition at 100 µM is 33%.

On to `CCNC(=O)C1=C(C)NC(c2ccccc2)=C(C(=O)OCC)C1C#Cc1ccccc1` (racemic) [Compound 134, 5-Ethoxycarbonyl-2-methyl-4-phenylethynyl-6-phenyl-1,4-(±)-dihydropyridine-3-carboxylic ethyl amide], for which the inhibition at 100 µM was 19 ± 6%.

As for `CCOC(=O)C1=C(C)NC(c2ccccc2)=C(C(=O)OCC[Si](C)(C)C)C1C#Cc1ccccc1` (racemic) [Compound 129, 3-Ethyl 5-(2-trimethylsilyl)-ethyl 2-methyl-4-phenylethynyl-6-phenyl-1,4-(±)-dihydropyridine-3,5-dicarboxylate], the inhibition at 100 µM was found to be 18 ± 5%.

For the molecule `CCOC(=O)C1=C(C)NC(c2ccccc2)=C(C(=O)SCC)C1C#Cc1ccccc1` (racemic) [Compound 130a, 3-Ethyl 5-thioethyl 2-methyl-4-phenylethynyl-6-phenyl-1,4(±)-dihydropyridine-3,5-dicarboxylate], the inhibition at 100 µM stood at 17%.

As for `CCNC(=O)C1=C(c2ccccc2)N(COCC)C(C)=C(C(=O)OCC)C1C#Cc1ccccc1` (stereo not drawn) [Compound 140], the inhibition at 100 µM stood at 35%.

Turning to `CCOC(=O)C1=C(C)NC(c2ccccc2)=C(C(=O)OCC)C1c1cccnc1` (racemic) [Compound 112, 3,5-Diethyl 2-methyl-4-(3-pyridyl)-6-phenyl-1,4-(±)-dihydropridine-3,5-dicarboxylate], the inhibition at 100 µM is 40%.

The same assay, now with this note: Table 12; 10^-4 M; read-out: displacement of specific binding rA2A.
Take `CCOC(=O)C1=C(C)NC(c2ccccc2)=C(C(=O)OCC)C1c1ccccc1` (racemic) [Compound 110, 3,5-Diethyl 2-methyl-4,6-diphenyl-1,4-(±)-dihydropyridine-3,5-dicarboxylate]: the inhibition at 100 µM was below 10%.

Consider `CCOC(=O)C1=C(C)NC(c2ccccc2)=C(C(=O)OCC)C1c1ccco1` (stereo not drawn) [Compound 115], for which the inhibition at 100 µM is below 10%.

For the molecule `CCOC(=O)C1=C(C)NC(c2ccccc2)=C(C(=O)OCC)C1c1cc2ccccc2o1` (racemic) [Compound 116, 3,5-Diethyl 2-methyl-4-(2-benzofuryl)-6-phenyl-1,4-(±)-dihydropridine-3,5-dicarboxylate], the inhibition at 100 µM was below 10%.

The assay is the same for the next values; noted with them: Table 12; [3H]CGS 21680, rat striatal membranes; read-out: Ki rA2A.
As to `CCOC(=O)C1=C(c2ccccc2)NC(C)=C(C(=O)SCC)C1C#Cc1ccccc1` (stereo not drawn) [Compound 130b], the Ki turned out to be 5.15 ± 1.83 µM.

In the case of `CCOC(=O)C1=C(C)NC(c2ccccc2)=C(C(=O)OCC)C1c1ccncc1` (racemic) [Compound 113, 3.5-Diethyl 2-methyl-4-(4-pyridyl)-6-phenyl-1,4(±)-dihydropyridine-3.5-dicarboxylate], the Ki worked out at 44.7 ± 3.7 µM.

The same assay, now with this note: Table 14; 10^-4 M; read-out: % inhibition rA2A.
In the case of `CCOC(=O)C1=C(c2ccccc2)NC(C)=C(C(=O)OCC(O)CO)C1C#Cc1ccccc1` (stereo not drawn) [Compound 213a], the inhibition at 100 µM worked out at 39 ± 8%.

Still in this assay, the particulars now being: Table 14; 10^-4 M; read-out: displacement of specific binding rA2A.
For `CCOC(=O)C1=C(c2ccccc2)NC(C)=C(C(=O)OCC(O)CO)C1C#Cc1ccccc1` (stereo not drawn) [Compound 212a], the inhibition at 100 µM is below 10%.

The assay is the same for the next values; noted with them: read-out: % inhibition rA2A.
`CCOC(=O)C1=C(c2ccccc2)NC(C)=C(C(C)=O)C1C#Cc1ccccc1` (racemic) [Compound 135]: the inhibition at 100 µM was 17 ± 7%.

In the case of `CCOC(=O)C1=C(C)NC(c2ccccc2)=C(C(=O)OCC)C1C#Cc1ccccc1` (racemic) [Compound 98], the inhibition at 100 µM stood at 26%.
